“And” between values parts separate entries of the source, which are not always exact repeats. Equal entries are not always repeated. “Also recorded” adds a separate entry of the source.
What was measured:
[1] = molecular target: T1, IP3K-KD (human IP3K-KD A isoform, residues 187–461) (Homo sapiens, UniProt P23677); assay: Ligand displacement assay: fluorescence polarization (anisotropy) of 2-FITC-InsP3/IP3K-KD complex; assay type: binding; settings: for IC50: 100 nM IP3K-KD, 2 nM 2-FITC-InsP3, 20 mM HEPES pH 7.5, 1 mM EDTA, 50 mM KCl, n=4 replicates, 5-s and 5-p racemic, read-out: IC50, displacement of 2-FITC-InsP3 from IP3K-KD; for Kd: estimated Ki (Kd) from IC50 with [2-FITC-InsP3] 2 nM and its Kd 68 nM, read-out: Kd inferred from IC50 (Cheng and Prusoff); for Quality as IP3K ligand (in words): Fig. 6
T1 construct: human IP3K-KD A isoform (residues 187–461); GST (cleaved yes); made in house; host or cells: Escherichia coli BL21 star (DE3)
Description: (§1) A construct encoding human IP3K-KD A isoform (residues 187–461) into pOPTG vector was used[16]. The protein was expressed in Escherichia coli BL21 star (DE3) strain. Cells were grown at 37 °C to OD600 = 1.0 then induced with 0.4 mM IPTG for 18 h at 16 °C. Protein purification was performed by adapting the reported protocol. Cells were resuspended in buffer A (10 mM Tris pH 7.5 [4 °C], 200 mM NaCl and 2 mM DTT) and disrupted by sonication. Clarified cell lysate was diluted 1/4 in buffer B (10 mM Tris pH 7.5 [4 °C] and 2 mM DTT) and loaded into a 5 mL HiTrap heparin column (GE Healthcare) washed by buffer C (20 mM Tris pH 7.5, 50 mM NaCl and 2 mM DTT), and eluted with a 0.05 M–1 M salt gradient. The eluted sample was subsequently loaded on to a 5 mL glutathione–Sepharose HP column (GE Healthcare), washed with buffer A and eluted with reduced glutathione 10 mM (Sigma-Aldrich) in buffer A. The GST tag was cleaved with home-made TEV (tobacco etch virus) protease overnight at 4 °C, (1:40 TEV/protein mass ratio). After glutathione removal with a PD10 column, the cleaved protein was further purified using a 5 mL glutathione–Sepharose HP column (GE Healthcare) followed by gel filtration on a 16/600 Superdex200 (GE Healthcare) column equilibrated in buffer D (20 mM Tris pH 7.5 [4 °C], 0.05 M (NH4)2SO4 and 2 mM DTT). Protein samples were analyzed by SDS/PAGE, concentrated around 18 mg/mL and stored at −80 °C until use.
Binding of a competing/displacing ligand to protein is observed as a decrease in the polarization (anisotropy) of 2-FITC-InsP3. A comparison of the strength of binding of enzyme substrates, analogues and products to IP3K-KD was obtained by measurement of fluorescence polarization (here anisotropy) of 2-FITC-InsP3/IP3K-KD complex. Experimentally, 100 nM IP3K-KD was mixed with 2 nM 2-FITC-InsP3[37] in 20 mM HEPES pH 7.5, 1 mM EDTA and 50 mM KCl with the addition of displacing compounds over a range of 1 nM–50 μM. Assays were analyzed using a ClarioSTAR plate reader and IC50 values determined from fit of the data to a 4-parameter logistic as described. From IC50 values, we have estimated the Ki (Kd) values for the displacing ligands using the equation of Cheng and Prusoff:[69]1 Ki=IC50/1+L/Kd where [L] is the ligand (2-FITC-InsP3) concentration and Kd the dissociation constant for its interaction with IP3K-KD. […] Consequently, the Ki values for the displacing ligands differ trivially from their IC50 values.

IP3K-KD [2] = molecular target: T2, IP3K-KD (Homo sapiens, UniProt P23677); assay: HPLC analysis of IP3K-KD reaction mixtures (substrate test); assay type: biochemical; settings: 150 nM IP3K-KD, 500 μM analogue, 1 mM ATP, 2 h at 30 °C, Fig. 7a
T2 construct: human IP3K-KD A isoform (residues 187–461); GST (cleaved yes); made in house; host or cells: Escherichia coli BL21 star (DE3)
Description: as §1

[3] = molecular target: T1, IP3K-KD (human IP3K-KD A isoform, residues 187–461); assay: Fluorescence thermal shift analysis (Tycho NT.6, inflection temperature Ti); assay type: binding; settings: for Ti, transition 1 (mean inflection temperature) / Ti, transition 2 (mean inflection temperature): 10 μM IP3K-KD, 100 μM chiral or 200 μM racemic ligand, AMP-PNP or ADP, 100 μM MgCl2; for Ti, transition 1 (mean inflection temperature) / Ti, transition 2 (mean inflection temperature) / ΔTi, transition 1 / ΔTi, transition 2: mean ± SD, n=3; for ΔTi, transition 1: Ti minus Ti of apo IP3K-KD (44.4); for ΔTi, transition 2: Ti minus Ti of apo IP3K-KD (53.8); for Transition 1 Ti, individual measurement / Transition 2 Ti, individual measurement: source data of Fig. 6b/6c, single replicates; for Transition 1 Dti (Ti-Ti Apo) / Transition 1 Ti Mean / Transition 2 DTi (Ti-Ti Apo) / Transition 2 Ti Mean: source data of Fig. 6c, N 3
Description: as §1
Thermal protein denaturation was documented by recording intrinsic protein fluorescence at 330 and 350 nm wavelengths. The fluorescence recorded in each thermal run is plotted as 350/330 nm ratio and used to calculate the Inflection Temperature (Ti). Ti is the temperature at which a protein undergoes a transition in its folding state. This calculation is performed automatically by the Tycho NT.6 software. The protocol optimized for this procedure, involves a heating time of 2 min, a sample volume of 10 μl placed in a very thin capillary, and a temperature ramp from 35 °C (308 K) to 95 °C (368 K). For the experiment, IP3K-KD was diluted with buffer D to achieve a concentration of 0.31 mg/mL (10 μM). It was then mixed with 100 μM of chiral ligands or 200 μM of racemic ligands (all synthesized as stated in this work except InsP3 and InsP4 that were commercial from Avanti Polar Lipids), AMP-PNP (substrate analogues) or ADP (product-like ligands) and 100 μM MgCl2. Microsoft Excel was used to calculate and plot ΔTi values and standard deviations.

[4] = system: permeabilized rat hepatocytes; design: method as in PMID 11405648; settings: cited from earlier work
[5] = system: permeabilized rabbit platelets; design: method as in doi:10.1016/0960-894X(96)00399-X; settings: cited from earlier work
IP3K-KD [6] = molecular target: T2, IP3K-KD; assay: Direct binding of 2-FITC-InsP3 to IP3K-KD, one-site binding model; settings: GraphPad Prism

T2 sequence (P23677 187-461): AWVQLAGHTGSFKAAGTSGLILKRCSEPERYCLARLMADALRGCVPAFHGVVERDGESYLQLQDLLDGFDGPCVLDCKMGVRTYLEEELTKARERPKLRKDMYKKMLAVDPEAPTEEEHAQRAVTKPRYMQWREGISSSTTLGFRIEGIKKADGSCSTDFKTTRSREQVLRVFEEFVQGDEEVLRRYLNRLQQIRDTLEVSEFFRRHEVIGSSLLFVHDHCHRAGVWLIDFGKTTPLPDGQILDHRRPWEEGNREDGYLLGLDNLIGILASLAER
T1 sequence (P23677 187-461): as above

Compound	IC50 [1] [µM]	Kd [1] [µM]	Ability to act as IP3K substrate (in words) (IP3K-KD [2])	Ti, transition 1 (mean inflection temperature) [3]	Ti, transition 2 (mean inflection temperature) [3]	ΔTi, transition 1 [3]	ΔTi, transition 2 [3]	Transition 1 Ti, individual measurement [3]	Transition 2 Ti, individual measurement [3]	Transition 1 Dti (Ti-Ti Apo) [3]	Transition 1 Ti Mean [3]	Transition 2 DTi (Ti-Ti Apo) [3]	Transition 2 Ti Mean [3]	Ability to stimulate cellular Ca2+ release [4]	Quality as IP3K ligand (in words) [1]	45Ca2+ release relative to InsP3 [5]	Kd (IP3K-KD [6]) [µM]	Binding to IP3K (in words) ([3]; Fig. 6b,c)	Stabilization of IP3K-KD by ligand (in words) ([3]; thermal shift, Fig. 6c)
O=P(O)(O)OC[C@@H]1O[C@H](CO)[C@@H](OP(=O)(O)O)[C@H](OP(=O)(O)O)[C@H]1O [7a–s, β-D-glucopyranosylmethanol 3,4,1’-trisphosphate]	0.656	0.637	are also substrates	49.7 ± 0.4 ºC	56.1 ± 0.3 ºC	5.3 ± 0.5 ºC	2.3 ± 0.3 ºC	50.2 and 49.5 and 49.4	55.9 and 56.1 and 56.4	5.3	49.7	2.3	56.1	–	–	–	–	–	–
O=P(O)(O)OCC1C(O)C(OP(=O)(O)O)C(O)C(OP(=O)(O)O)C1OP(=O)(O)O (racemic) [5-p, DL-6-deoxy-6-phosphoryloxymethyl-scyllo-inositol 1,2,4-trisphosphate]	0.875	0.85	–	52.1 ± 0.1 ºC	57.6 ± 0.1 ºC	7.7 ± 0.3 ºC	3.8 ± 0.2 ºC	52.2 and 52.1 and 52.0	57.6 (2×) and 57.7	7.7	52.1	3.8	57.6	abolishes the ability to stimulate cellular Ca^2+ release	maintains quite good binding to IP3K	–	–	–	–
O=P(O)(O)O[C@@H]1[C@@H](O)[C@H](CO)[C@@H](OP(=O)(O)O)[C@H](OP(=O)(O)O)[C@H]1O (racemic) [5-s, DL−6-deoxy-6-hydroxymethyl-scyllo-inositol 1,2,4-trisphosphate]	0.972	0.944	are also substrates	51.3 ± 0.2 ºC	57.0 ± 0.1 ºC	6.9 ± 0.4 ºC	3.2 ± 0.2 ºC	51.5 and 51.1 and 51.3	56.9 (2×) and 57.1	6.9	51.3	3.2	57.0	–	good IP3K ligand	equipotent with InsP3 itself	–	–	–
O=C(O)c1cc(NC(=S)NCCO[C@@H]2[C@H](O)[C@@H](OP(=O)(O)O)[C@H](OP(=O)(O)O)[C@@H](O)[C@@H]2OP(=O)(O)O)ccc1-c1c2ccc(=O)cc-2oc2cc(O)ccc12 [2-FITC-InsP3]	–	–	–	–	–	–	–	–	–	–	–	–	–	–	–	–	0.068	–	–
O=P(O)(O)O[C@@H]1O[C@H](CO)[C@@H](OP(=O)(O)O)[C@H](OP(=O)(O)O)[C@H]1O [6a–s, β-D-glucopyranosyl 1,3,4-trisphosphate]	0.205	0.199	are also substrates	51.5 ± 0.2 ºC	57.3 ± 0.1 ºC	7.1 ± 0.3 ºC	3.5 ± 0.2 ºC	51.4 and 51.5 and 51.7	57.4 (2×) and 57.2	7.1	51.5	3.5	57.3	–	–	–	–	–	–
O=P(O)(O)OC[C@H]1O[C@H](CO)[C@@H](OP(=O)(O)O)[C@H](OP(=O)(O)O)[C@H]1O [7b–s, α-D-glucopyranosylmethanol 3,4,1’- trisphosphate]	6.99	6.79	weaker substrates; also recorded: poor substrate activity for IP3K	45.6 ± 0.7 ºC	54.4 ± 0.3 ºC	1.2 ± 0.7 ºC	0.6 ± 0.3 ºC	45.4 and 45.1 and 46.4	54.1 and 54.6 and 54.4	1.2	45.6	0.567	54.4	–	–	–	–	do not, or barely, bind IP3K	stabilize IP3K-KD much less than InsP3
O=P(O)(O)O[C@@H]1[C@@H](O)[C@H](O)[C@@H](OP(=O)(O)O)[C@H](OP(=O)(O)O)[C@H]1O [1-s, L-scyllo-inositol 1,2,4-trisphosphate]	0.036	0.035	is a good IP3K substrate	55.6 ± 0.1 ºC	60.7 ± 0.2 ºC	11.2 ± 0.3 ºC	6.9 ± 0.2 ºC	55.7 and 55.6 (2×)	60.8 and 60.5 and 60.7	11.2	55.6	6.9	60.7	–	–	–	–	–	–
